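Exposure lasted 48 hours, with cells grown in 96-well plates and compounds tested at five concentrations. GI50 = concentration required for 50% inhibition of growth.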 Activity calls are given as the source filed them. Rule as the data show it: active = GI50 up to about 1.1 µM and inactive = higher.
How the values were obtained:
Experiment in all cases: inhibition of tumour cell growth, NCI panel, 48 h
[1] = tested on: 786-0
[2] = tested on: A498
[3] = tested on: A549
[4] = tested on: ACHN
[5] = tested on: BT-549
[6] = tested on: CAKI-1
[7] = tested on: CCRF-CEM
[8] = tested on: COLO 205
[9] = tested on: DU-145
[10] = tested on: EKVX
[11] = tested on: HCT-116
[12] = tested on: HCT-15
[13] = tested on: HL-60
[14] = tested on: HOP-62
[15] = tested on: HOP-92
[16] = tested on: HT-29
[17] = tested on: Hs-578T
[18] = tested on: IGROV-1
[19] = tested on: K562
[20] = tested on: KM12
[21] = tested on: LOX IMVI
[22] = tested on: M14
[23] = tested on: MCF7
[24] = tested on: MDA-MB-231
[25] = tested on: MDA-MB-435
[26] = tested on: MDA-N
[27] = tested on: MOLT-4
[28] = tested on: Malme-3M
[29] = tested on: NCI-H226
[30] = tested on: NCI-H23
[31] = tested on: NCI-H460
[32] = tested on: NCI/ADR-RES
[33] = tested on: OVCAR-3
[34] = tested on: OVCAR-4
[35] = tested on: OVCAR-5
[36] = tested on: OVCAR-8
[37] = tested on: PC-3
[38] = tested on: RPMI-8226
[39] = tested on: RXF 393
[40] = tested on: SF-268
[41] = tested on: SF-295
[42] = tested on: SF-539
[43] = tested on: SK-MEL-28
[44] = tested on: SK-MEL-2
[45] = tested on: SK-MEL-5
[46] = tested on: SK-OV-3
[47] = tested on: SN12C
[48] = tested on: SNB-19
[49] = tested on: SNB-75
[50] = tested on: SR
[51] = tested on: SW-620
[52] = tested on: TK-10
[53] = tested on: U-251
[54] = tested on: UACC-257
[55] = tested on: UACC-62
[56] = tested on: UO-31
[57] = tested on: HCC 2998
[58] = tested on: NCI-H522
[59] = tested on: T47D

For `O=C(OCCN=C1c2ccccc2CCc2ccccc21)c1cc([N+](=O)[O-])cc([N+](=O)[O-])c1`, the GI50 [1] was > 31.6 µM (inactive), the GI50 [2] was > 10 µM (inactive) and the GI50 [3] was 26.7 µM (inactive). For the same compound, the GI50 [4] was > 31.6 µM (inactive), the GI50 [5] was > 100 µM (inactive) and the GI50 [6] was 29.3 µM (inactive). For the same compound, the GI50 [7] was 74.6 µM (inactive), the GI50 [8] was > 31.6 µM (inactive) and the GI50 [9] was > 31.6 µM (inactive). The GI50 [10] was > 31.6 µM (inactive), the GI50 [11] was > 31.6 µM (inactive) and the GI50 [12] was greater than 31.6 µM. The GI50 [13] was 25.7 µM (inactive), the GI50 [14] was > 31.6 µM (inactive) and the GI50 [15] was > 31.6 µM (inactive). For the same compound, the GI50 [16] was > 31.6 µM (inactive), the GI50 [17] was > 31.6 µM (inactive) and the GI50 [18] was 28.2 µM (inactive). For the same compound, the GI50 [19] was 20.7 µM (inactive), the GI50 [20] was 28.1 µM (inactive) and the GI50 [21] was > 31.6 µM (inactive). For the same compound, the GI50 [22] was > 31.6 µM (inactive), the GI50 [23] was > 31.6 µM (inactive) and the GI50 [24] was > 31.6 µM (inactive). For the same compound, the GI50 [25] was > 31.6 µM (inactive), the GI50 [26] was > 31.6 µM (inactive) and the GI50 [27] was 4.22 µM (inactive). For the same compound, the GI50 [28] was > 31.6 µM (inactive), the GI50 [29] was > 31.6 µM (inactive) and the GI50 [30] was > 31.6 µM (inactive). For the same compound, the GI50 [31] was > 31.6 µM (inactive), the GI50 [32] was > 31.6 µM (inactive) and the GI50 [33] was 23.3 µM (inactive). The GI50 [34] was 78.2 µM (inactive), the GI50 [35] was > 31.6 µM (inactive) and the GI50 [36] was > 31.6 µM (inactive). For the same compound, the GI50 [37] was > 31.6 µM (inactive), the GI50 [38] was 5.09 µM (inactive) and the GI50 [39] was > 31.6 µM (inactive). The GI50 [40] was > 31.6 µM (inactive), the GI50 [41] was 23.6 µM (inactive) and the GI50 [42] was > 31.6 µM (inactive). For the same compound, the GI50 [43] was > 31.6 µM (inactive), the GI50 [44] was > 31.6 µM (inactive) and the GI50 [45] was 27.2 µM (inactive). For the same compound, the GI50 [46] was > 100 µM (inactive), the GI50 [47] was > 31.6 µM (inactive) and the GI50 [48] was > 31.6 µM (inactive). The GI50 [49] was > 100 µM (inactive), the GI50 [50] was 3.52 µM (inactive) and the GI50 [51] was > 31.6 µM (inactive). The GI50 [52] was > 31.6 µM (inactive), the GI50 [53] was > 100 µM (inactive) and the GI50 [54] was > 31.6 µM (inactive). The GI50 [55] was > 31.6 µM (inactive) and the GI50 [56] was 21.9 µM (inactive).
`O=[N+]([O-])c1ccc(C2NC(=S)NC3c4cc([N+](=O)[O-])ccc4CCCC23)cc1` (configuration not stated) was tested, and the GI50 [1] was 97.1 µM (inactive), the GI50 [2] was 76.7 µM (inactive) and the GI50 [3] was 78.3 µM (inactive). The GI50 [4] was 63.4 µM (inactive), the GI50 [5] was 38.8 µM (inactive) and the GI50 [6] was > 100 µM (inactive). For the same compound, the GI50 [7] was 39.4 µM (inactive), the GI50 [8] was > 100 µM (inactive) and the GI50 [9] was 33 µM (inactive). The GI50 [10] was 77.3 µM (inactive), the GI50 [57] was > 100 µM (inactive) and the GI50 [11] was > 100 µM (inactive). For the same compound, the GI50 [12] was greater than 100 µM, the GI50 [13] was > 100 µM (inactive) and the GI50 [14] was 57.4 µM (inactive). For the same compound, the GI50 [15] was 15.4 µM (inactive), the GI50 [16] was > 100 µM (inactive) and the GI50 [17] was > 100 µM (inactive). The GI50 [18] was 36.9 µM (inactive), the GI50 [19] was > 100 µM (inactive) and the GI50 [20] was > 100 µM (inactive). For the same compound, the GI50 [21] was > 100 µM (inactive), the GI50 [22] was > 100 µM (inactive) and the GI50 [23] was 41.8 µM (inactive). The GI50 [24] was > 100 µM (inactive), the GI50 [25] was > 100 µM (inactive) and the GI50 [27] was > 100 µM (inactive). For the same compound, the GI50 [28] was > 100 µM (inactive), the GI50 [29] was 53.5 µM (inactive) and the GI50 [30] was 67.3 µM (inactive). For the same compound, the GI50 [31] was > 100 µM (inactive), the GI50 [58] was 69.7 µM (inactive) and the GI50 [32] was > 100 µM (inactive). The GI50 [33] was 40.7 µM (inactive), the GI50 [34] was 56.4 µM (inactive) and the GI50 [35] was > 100 µM (inactive). The GI50 [36] was 52.2 µM (inactive), the GI50 [37] was 55.7 µM (inactive) and the GI50 [38] was 58.9 µM (inactive). The GI50 [39] was 18.2 µM (inactive), the GI50 [40] was 46.8 µM (inactive) and the GI50 [41] was 46.6 µM (inactive). The GI50 [42] was 39.1 µM (inactive), the GI50 [43] was > 100 µM (inactive) and the GI50 [44] was > 100 µM (inactive). For the same compound, the GI50 [45] was > 100 µM (inactive), the GI50 [46] was > 100 µM (inactive) and the GI50 [47] was > 100 µM (inactive). For the same compound, the GI50 [48] was 40.9 µM (inactive), the GI50 [49] was 16.6 µM (inactive) and the GI50 [50] was > 100 µM (inactive). The GI50 [51] was > 100 µM (inactive), the GI50 [59] was 35.6 µM (inactive) and the GI50 [52] was > 100 µM (inactive). The GI50 [53] was 44.9 µM (inactive), the GI50 [54] was > 100 µM (inactive) and the GI50 [55] was 31.2 µM (inactive). The GI50 [56] was 63.8 µM (inactive).
For `CC(C)(C)OC(=O)NC(CS(=O)(=O)O)C(=O)O` (configuration not stated), the GI50 [1] was > 100 µM (inactive), the GI50 [2] was > 100 µM (inactive) and the GI50 [3] was > 100 µM (inactive). The GI50 [4] was > 100 µM (inactive), the GI50 [5] was > 100 µM (inactive) and the GI50 [6] was > 100 µM (inactive). The GI50 [7] was > 100 µM (inactive), the GI50 [8] was > 100 µM (inactive) and the GI50 [9] was > 100 µM (inactive). The GI50 [10] was > 100 µM (inactive), the GI50 [57] was > 100 µM (inactive) and the GI50 [11] was > 100 µM (inactive). The GI50 [12] was greater than 100 µM, the GI50 [13] was > 100 µM (inactive) and the GI50 [14] was > 100 µM (inactive). For the same compound, the GI50 [15] was > 100 µM (inactive), the GI50 [16] was > 100 µM (inactive) and the GI50 [18] was > 100 µM (inactive). For the same compound, the GI50 [19] was > 100 µM (inactive), the GI50 [20] was > 100 µM (inactive) and the GI50 [21] was > 100 µM (inactive). The GI50 [22] was > 100 µM (inactive), the GI50 [23] was > 100 µM (inactive) and the GI50 [24] was > 100 µM (inactive). For the same compound, the GI50 [25] was > 100 µM (inactive), the GI50 [26] was > 100 µM (inactive) and the GI50 [27] was > 100 µM (inactive). For the same compound, the GI50 [28] was > 100 µM (inactive), the GI50 [29] was > 100 µM (inactive) and the GI50 [30] was > 100 µM (inactive). The GI50 [31] was > 100 µM (inactive), the GI50 [58] was > 100 µM (inactive) and the GI50 [32] was > 100 µM (inactive). The GI50 [33] was > 100 µM (inactive), the GI50 [34] was > 100 µM (inactive) and the GI50 [35] was > 100 µM (inactive). The GI50 [36] was > 100 µM (inactive), the GI50 [37] was > 100 µM (inactive) and the GI50 [38] was > 100 µM (inactive). The GI50 [39] was > 100 µM (inactive), the GI50 [40] was > 100 µM (inactive) and the GI50 [41] was > 100 µM (inactive). The GI50 [42] was > 100 µM (inactive), the GI50 [43] was > 100 µM (inactive) and the GI50 [44] was > 100 µM (inactive). For the same compound, the GI50 [45] was > 100 µM (inactive), the GI50 [46] was > 100 µM (inactive) and the GI50 [47] was > 100 µM (inactive). The GI50 [48] was > 100 µM (inactive), the GI50 [49] was > 100 µM (inactive) and the GI50 [50] was > 100 µM (inactive). The GI50 [51] was > 100 µM (inactive), the GI50 [59] was > 100 µM (inactive) and the GI50 [52] was > 100 µM (inactive). The GI50 [53] was > 100 µM (inactive), the GI50 [54] was > 100 µM (inactive) and the GI50 [55] was > 100 µM (inactive). The GI50 [56] was > 100 µM (inactive).
